In publication PMC8041284, “Tunable Methacrylamides for Covalent Ligand Directed Release Chemistry” (Journal of the American Chemical Society, 2021):
Where no end group is shown, it is not given here.

Molecular target: BTK (Homo sapiens, UniProt Q06187)
Test: biochemical
Details: read-out: BTK inhibition (%), 0.75 uM BTK, […] probe 3l, 15 min preincubation

Chain of BTK (Q06187 402-655 limits assumed): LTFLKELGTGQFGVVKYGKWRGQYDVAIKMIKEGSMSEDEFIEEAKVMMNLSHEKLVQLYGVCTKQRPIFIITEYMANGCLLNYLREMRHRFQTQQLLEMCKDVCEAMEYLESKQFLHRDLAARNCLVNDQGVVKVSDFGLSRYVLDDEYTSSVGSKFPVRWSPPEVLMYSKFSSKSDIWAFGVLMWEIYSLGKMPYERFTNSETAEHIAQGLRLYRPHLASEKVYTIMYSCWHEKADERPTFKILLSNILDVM

## Cn1nnc(-c2ccc(-c3ccc(N4C[C@H](CO)OC4=O)cc3F)cn2)n1 [PCM-0216559]
  inhibition at 10 µM: -12.4%

## C=C1CCC[C@]2(C)Cc3occ(C)c3C[C@@H]12 [PCM-0216433]
  inhibition at 10 µM: 2.3%

## NC(CO)C(=O)NNCc1ccc(O)c(O)c1O (stereo not drawn) [PCM-0064697]
  inhibition at 10 µM: -14%

## CC1=CCC2C(C1)C2(C)C (stereo not drawn) [PCM-0216215]
  inhibition at 10 µM: 8.5%

## RKDVY [PCM-0214887]
  inhibition at 10 µM: 4.8%

## CCCCCCCCCCCCCCCC(=O)OC [PCM-0216632]
  inhibition at 10 µM: 25.5%

## CC(C)NCC(O)COc1ccc(COCCOC(C)C)cc1 (stereo not drawn) [PCM-0064988]
  inhibition at 10 µM: -31.9%

## O=C1C[C@@H](c2ccc(O)cc2)Oc2cc(O)cc(O)c21 [PCM-0094816]
  inhibition at 10 µM: 3.9%

## Cc1coc2c1C(=O)C(=O)c1c-2ccc2c(C)cccc12 [PCM-0094815]
  inhibition at 10 µM: -3.9%

## O=C1C(c2[nH]c3ccc(S(=O)(=O)O)cc3c2O)=Nc2ccc(S(=O)(=O)O)cc21 [PCM-0216597]
  inhibition at 10 µM: 23.9%

## CC[C@H](C)[C@H](NC(=O)[C@H]([C@@H](C)CC)N(C)C(C)=O)C(=O)N[C@H](C(=O)N[C@@H](CC(C)C)C(=O)[C@@]1(C)CO1)[C@@H](C)O [PCM-0215680]
  inhibition at 10 µM: 23.9%

## Cn1nnnc1SCC1=C(C(=O)O)N2C(=O)[C@@H](NC(=O)[C@H](OC=O)c3ccccc3)[C@H]2SC1 [PCM-0214900]
  inhibition at 10 µM: 8.6%

## CO/N=C(\C(=O)N[C@@H]1C(=O)N2C(C(=O)OCOC(=O)C(C)(C)C)=C(/C=C\c3scnc3C)CS[C@H]12)c1csc(N)n1 [PCM-0214651]
  inhibition at 10 µM: 28%

## CNc1nc(Nc2cnn([C@H]3CCN(C4COC4)C[C@@H]3F)c2Cl)ncc1C(F)(F)F [PCM-0215360]
  inhibition at 10 µM: 0%

## NC(N)=Nc1nc(CSCC/C(N)=N/S(N)(=O)=O)cs1 [PCM-0214735]
  inhibition at 10 µM: -26.2%

## OCc1ccc(O[C@@H]2O[C@H](CO)[C@@H](O)[C@H](O)[C@H]2O)cc1 [PCM-0094551]
  inhibition at 10 µM: 17.9%

## CN1CC(=O)N2[C@H](c3ccc4c(c3)OCO4)c3[nH]c4ccccc4c3C[C@@H]2C1=O [PCM-0214630]
  inhibition at 10 µM: -6.2%

## CCc1cccc2c3c([nH]c12)C(CC)(CC(=O)O)OCC3 (stereo not drawn) [PCM-0094929]
  inhibition at 10 µM: 1.4%

## COc1cc2ncnc(Oc3ccc(CC(=O)Nc4cnn(C(C)C)c4)cc3)c2cc1OC [PCM-0215465]
  inhibition at 10 µM: -11.7%

## Nc1ncnc2c1ncn2[C@@H]1O[C@H](COP(=O)(O)O)[C@@H](O)[C@H]1O [PCM-0086027]
  inhibition at 10 µM: -23.2%

## C[C@@H]1CN(c2c(F)c(N)c3c(=O)c(C(=O)O)cn(C4CC4)c3c2F)C[C@H](C)N1 [PCM-0086271]
  inhibition at 10 µM: 2.3%

## COc1cccc(C(N)=O)c1 [PCM-0216109]
  inhibition at 10 µM: 2.3%

## CC(C)=CCC[C@](C)(O[C@@H]1O[C@H](CO[C@@H]2OC[C@H](O)[C@H](O)[C@H]2O)[C@@H](O)[C@H](O)[C@H]1O)[C@H]1CC[C@]2(C)[C@@H]1[C@H](O)C[C@@H]1[C@@]3(C)CC[C@H](O[C@@H]4O[C@H](CO)[C@@H](O)[C@H](O)[C@H]4O[C@@H]4O[C@H](CO)[C@@H](O)[C@H](O)[C@H]4O)C(C)(C)[C@@H]3CC[C@]12C [PCM-0216375]
  inhibition at 10 µM: 7.7%

## C=CC(=O)Nc1cc(Nc2nccc(-c3c[nH]c4ccccc34)n2)c(OC)cc1N(C)CCN(C)C [PCM-0215489]
  inhibition at 10 µM: 91.7%

## CCOCCn1c(N2CCCN(C)CC2)nc2ccccc21 [PCM-0086037]
  inhibition at 10 µM: 2.3%

## O=c1[nH]c(=O)n(C2CCCO2)cc1F (stereo not drawn) [PCM-0094899]
  inhibition at 10 µM: -3.1%

## N#CSc1cc(SC#N)c(N)nc1N [PCM-0095820]
  inhibition at 10 µM: 112%

## COc1ccc2c(c1OC)CN1CCc3cc4c(cc3C1C2)OCO4 (stereo not drawn) [PCM-0216126]
  inhibition at 10 µM: 13.1%

## O=C(O)/C=C/C(=O)O [PCM-0064603]
  inhibition at 10 µM: -7.7%

## CCCNC[C@]1(O)[C@H](C)O[C@@H](O[C@H]2[C@H](C)[C@@H](O[C@@H]3O[C@H](C)C[C@H](N(C)C)[C@H]3O)[C@](C)(O)C[C@@H](C)CN[C@H](C)[C@@H](O)[C@](C)(O)[C@@H](CC)OC(=O)[C@@H]2C)C[C@@]1(C)OC [PCM-0214927]
  inhibition at 10 µM: -26.5%
